Laboratory results taken from US12060351B2, “Thiadiazole IRAK4 inhibitors” (Gilead Sciences, Inc., priority 2018, dated 2024).
Read-outs that look alike come from different tables or passages of the source.

Tests used:
IRAK4 enzyme = biological target: T1, IRAK4 enzyme (Homo sapiens, UniProt Q9NWZ3); assay: IRAK4 Biochemical Assay (TR-FRET, STK1 KinEASE); conditions: 500 μM ATP, Table 2 second part (compounds 33-343), read-out: IC50 IRAK4-HTBS
T1 construct: purchased Carna Biosciences, Chuo-ku, Kobe, Japan
T1 sequence (Q9NWZ3 1-460): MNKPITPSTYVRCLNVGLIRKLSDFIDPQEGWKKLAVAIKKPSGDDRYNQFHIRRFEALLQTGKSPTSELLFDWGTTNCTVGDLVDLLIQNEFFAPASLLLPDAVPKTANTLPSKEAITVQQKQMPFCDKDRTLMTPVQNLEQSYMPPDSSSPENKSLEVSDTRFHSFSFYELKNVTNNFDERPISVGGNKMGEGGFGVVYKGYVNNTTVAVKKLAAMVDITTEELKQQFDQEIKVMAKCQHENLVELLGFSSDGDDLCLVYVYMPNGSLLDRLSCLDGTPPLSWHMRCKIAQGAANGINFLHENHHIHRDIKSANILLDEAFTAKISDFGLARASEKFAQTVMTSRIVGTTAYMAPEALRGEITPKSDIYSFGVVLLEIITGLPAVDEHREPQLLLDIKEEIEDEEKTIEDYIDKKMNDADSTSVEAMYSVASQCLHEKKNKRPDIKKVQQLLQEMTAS
Method in brief: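 Human IRAK4 (0.75 nM) preincubated 15 min with compound and 2 μM STK1 peptide, then reacted 120 min at room temperature with 500 μM ATP in HEPES pH 7.0 buffer with MgCl2 and DTT. EDTA stop with Cryptate anti-phosphopeptide antibody and tracer, 60 min; TR-FRET read as 665/615 nm ratio.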

TNFα = assay: IRAK4 Monocyte TNFα Cell Based Assay (LPS-stimulated, TR-FRET TNFα detection); design: species or system human; conditions: Homo sapiens, Monocyte, read-out: EC50 MONO TNF HTRF
Method in brief: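 Monocytes (5,000 cells/well) treated with compound (0.1% DMSO) for 1 hour at 37° C, then stimulated with 50 pg/ml LPS for 4 hours. TNFα in medium quantified by TR-FRET two-antibody detection after overnight room-temperature incubation. Percent of control calculated against unstimulated (0%) and LPS-stimulated (100%) cells.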

[1] = human monocytes, LPS-stimulated, Table 2 second part (compounds 33-343)

SMILES | IC50 (IRAK4 enzyme) [nM] | EC50 (TNFα; [1]) [nM] | EC50 (TNFα) [nM]
CC(=O)N[C@@H]1[C@@H]2C[C@H]1CN(c1nnc(-c3cnc(-c4ccc5cc(C#N)cnn45)cc3N[C@H](C)C#N)s1)C2 [Example 174, N-((1R,5S,6S)-3-(5-(4-(((R)-1-cyanoethyl)amino)-6-(3-cyanopyrrolo[1,2-b]pyridazin-7-yl)pyridin-3-yl)-1,3,4-thiadiazol-2-yl)-3-azabicyclo[3.1.1]heptan-6-yl)acctamide] | 0.49 | – | 3.5
CC(=O)N[C@@H]1[C@@H]2C[C@H]1CN(c1nnc(-c3cnc(-c4ccc5cc(C#N)cnn45)cc3NC3(C)COC3)s1)C2 [Example 175, N-((1R,5S,6s)-3-(5-(6-(3-cyanopyrrolo[1,2-b]pyridazin-7-yl)-4-((3-methyloxetan-3-yl)amino)pyridin-3-yl)-1,3,4-thiadiazol-2-yl)-3-azabicyclo[3.1.1]heptan-6-yl)acetamide] | 0.57 | – | 9
CNc1cc(-c2ccc3cc(C#N)cnn23)ncc1-c1nnc(N2C[C@H]3C[C@@H](C2)[C@@H]3NC(C)=O)s1 [Example 176, N-((1R,5S,6s)-3-(5-(6-(3-cyanopyrrolo[1,2-b]pyridazin-7-yl)-4-(methylamino)pyridin-3-yl)-1,3,4-thiadiazol-2-yl)-3-azabicyclo[3.1.1]heptan-6-yl)acetamide] | 0.76 | – | 23.5
CC(=O)N[C@@H]1[C@@H]2C[C@H]1CN(c1nnc(-c3cnc(-c4ccc5cc(C#N)cnn45)cc3NC3COC3)s1)C2 [Example 179, N-((1R,5S,6s)-3-(5-(6-(3-cyanopyrrolo[1,2-b]pyridazin-7-yl)-4-(oxetan-3-ylamino)pyridin-3-yl)-1,3,4-thiadiazol-2-yl)-3-azabicyclo[3.1.1]heptan-6-yl)acetamide] | 0.37 | – | 6.4
CC(=O)N[C@H]1[C@@H]2COC[C@H]1CN(c1nnc(-c3cnc(-c4ccc5cc(C#N)cnn45)cc3NC(C)C)s1)C2 [Example 182, N-((1R,5S,9r)-7-(5-(6-(3-cyanopyrrolo[1,2-b]pyridazin-7-yl)-4-(isopropylamino)pyridin-3-yl)-1,3,4-thiadiazol-2-yl)-3-oxa-7-azabicyclo[3.3.1]nonan-9-yl)acetamide] | 0.53 | 37.8 | –
CC(=O)N[C@@H]1[C@@H]2CC[C@H]1CN(c1nnc(-c3cnc(-c4ccc5cc(C#N)cnn45)cc3NC3COC3)s1)C2 [Example 184, N-((1R,5S,8s)-3-(5-(6-(3-cyanopyrrolo[1,2-b]pyridazin-7-yl)-4-(oxetan-3-ylamino)pyridin-3-yl)-1,3,4-thiadiazol-2-yl)-3-azabicyclo[3.2.1]octan-8-yl)acetamide] | 0.54 | 2.4 | –
CC(C)Nc1cc(-c2ccc3cc(C#N)cnn23)ncc1-c1nnc([C@H]2C[C@@](C)(O)C2)s1 [Example 199, 7-(5-(5-((1s,3s)-3-hydroxy-3-methylcyclobutyl)-1,3,4-thiadiazol-2-yl)-4-(isopropylamino)pyridin-2-yl)pyrrolo[1,2-b]pyridazine-3-carbonitrile] | 0.69 | 38.3 | –
C[C@]1(O)C[C@@H](c2nnc(-c3cnc(-c4ccc5cc(C#N)cnn45)cc3NC3COC3)s2)C1 [Example 200, 7-(5-(5-((1s,3s)-3-hydroxy-3-methylcyclobutyl)-1,3,4-thiadiazol-2-yl)-4-(oxetan-3-ylamino)pyridin-2-yl)pyrrolo[1,2-b]pyridazine-3-carbonitrile] | 0.63 | 24.1 | –
CC(=O)N[C@H]1C[C@H](c2nnc(-c3cnc(-c4ccc5cc(C#N)cnn45)cc3NC3CCOCC3)s2)C1 [Example 201, N-((1r,3r)-3-(5-(6-(3-cyanopyrrolo[1,2-b]pyridazin-7-yl)-4-((tetrahydro-2H-pyran-4-yl)amino)pyridin-3-yl)-1,3,4-thiadiazol-2-yl)cyclobutyl)acetamide] | 1.17 | 34.9 | –
CC(=O)N[C@H]1C[C@H](c2nnc(-c3cnc(-c4ccc5cc(C#N)cnn45)cc3NC3COC3)s2)C1 [Example 202, N-((1r,3r)-3-(5-(6-(3-cyanopyrrolo[1,2-b]pyridazin-7-yl)-4-(oxctan-3-ylamino)pyridin-3-yl)-1,3,4-thiadiazol-2-yl)cyclobutyl)acetamide] | 1.23 | 166 | –
CC(=O)N[C@@H]1C[C@H]2COC[C@@H](C1)N2c1nnc(-c2cnc(-c3ccc4cc(C#N)cnn34)cc2NC(C)C)s1 [Example 209, N-((1R,5S,7r)-9-(5-(6-(3-cyanopyrrolo[1,2-b]pyridazin-7-yl)-4-(isopropylamino)pyridin-3-yl)-1,3,4-thiadiazol-2-lyl)-3-oxa-9-azabicyclo[3.3.1]nonan-7-yl)acetamide] | 0.89 | – | 9.6

Second part, led by results:

IC50 (IRAK4 enzyme) [nM] | EC50 (TNFα; [1]) [nM] | SMILES | EC50 (TNFα) [nM]
0.83 | 13.7 | N#Cc1cnn2c(-c3cc(NC4COC4)c(-c4nnc([C@H]5CC[C@@H](NC(=O)C6CC6)CC5)s4)cn3)ccc2c1 [Example 203, N-((1s,4s)-4-(5-(6-(3-cyanopyrrolo[1,2-b]pyridazin-7-yl)-4-(oxetan-3-ylamino)pyridin-3-yl)-1,3,4-thiadiazol-2-yl)cyclohexyl)cyclopropanecarboxamide] | –
0.62 | 20.1 | COC(=O)N[C@H]1CC[C@@H](c2nnc(-c3cnc(-c4ccc5cc(C#N)cnn45)cc3NC3COC3)s2)CC1 [Example 205, methyl ((1s,4s)-4-(5-(6-(3-cyanopyrrolo[1,2-b]pyridazin-7-yl)-4-(oxetan-3-ylamino)pyridin-3-yl)-1,3,4-thiadiazol-2-yl)cyclohexyl)carbamate] | –
0.84 | 2.8 | CC1(Nc2cc(-c3ccc4cc(C#N)cnn34)ncc2-c2nnc(N3C[C@H]4CC[C@@H](C3)[C@@H]4NC(=O)C(C)(C)O)s2)COC1 [Example 210, N-((1R,5S,8s)-3-(5-(6-(3-cyanopyrrolo[1,2-b]pyridazin-7-yl)-4-((3-methyloxetan-3-yl)amino)pyridin-3-yl)-1,3,4-thiadiazol-2-yl)-3-azabicyclo[3.2.1]octan-8-yl)-2-hydroxy-2-methylpropanamide] | –
0.31 | 1830 | CC(C)Nc1cc(-c2ccc3cc(C#N)cnn23)ncc1-c1nnc(C(=O)N[C@H]2C[C@H](O)C2)s1 [Example 213, 5-(6-(3-cyanopyrrolo[1,2-b]pyridazin-7-yl)-4-(isopropylamino)pyridin-3-yl)-N-((1r,3r)-3-hydroxycyclobutyl)-1,3,4-thiadiazole-2-carboxamide] | –
0.7 | 3100 | CC(C)Nc1cc(-c2ccc3cc(C#N)cnn23)ncc1-c1nnc(C(=O)N[C@H]2C[C@@H](O)C2)s1 [Example 215, 5-(6-(3-cyanopyrrolo[1,2-b]pyridazin-7-yl)-4-(isopropylamino)pyridin-3-yl)-N-((1s,3s)-3-hydroxycyclobutyl)-1,3,4-thiadiazole-2-carboxamide] | –
0.81 | 11.1 | CC(C)Nc1cc(-c2ccc3cc(C#N)cnn23)ncc1-c1nnc(C(=O)N2CCC[C@H]2CO)s1 [Example 217, (S)-7-(5-(5-(2-(hydroxymethyl)pyrrolidine-1-carbonyl)-1,3,4-thiadiazol-2-yl)-4-(isopropylamino)pyridin-2-yl)pyrrolo[1,2-b]pyridazine-3-carbonitrile] | –
1.12 | 858 | CC(C)Nc1cc(-c2ccc3cc(C#N)cnn23)ncc1-c1nnc(C(=O)N[C@H]2C[C@@](C)(O)C2)s1 [Example 218, 5-(6-(3-cyanopyrrolo[1,2-b]pyridazin-7-yl)-4-(isopropylamino)pyridin-3-yl)-N-((1s,3s)-3-hydroxy-3-methylcyclobutyl)-1,3,4-thiadiazole-2-carboxamide] | –
0.68 | 2070 | CC(C)Nc1cc(-c2ccc3cc(C#N)cnn23)ncc1-c1nnc(C(=O)N[C@H]2C[C@](C)(O)C2)s1 [Example 219, 5-(6-(3-cyanopyrrolo[1,2-b]pyridazin-7-yl)-4-(isopropylamino)pyridin-3-yl)-N-((1r,3r)-3-hydroxy-3-methylcyclobutyl)-1,3,4-thiadiazole-2-carboxamide] | –
1.39 | 131 | CC(C)Nc1cc(-c2ccc3cc(C#N)cnn23)ncc1-c1nnc(C(=O)N[C@H]2CC[C@H](O)CC2)s1 [Example 220, 5-(6-(3-cyanopyrrolo[1,2-b]pyridazin-7-yl)-4-(isopropylamino)pyridin-3-yl)-N-((1r,4r)-4-hydroxycyclohexyl)-1,3,4-thiadiazole-2-carboxamide] | –
1.12 | 4770 | CC(C)Nc1cc(-c2ccc3cc(C#N)cnn23)ncc1-c1nnc(C(=O)N[C@H]2CC[C@@H](O)CC2)s1 [Example 224, 5-(6-(3-cyanopyrrolo[1,2-b]pyridazin-7-yl)-4-(isopropylamino)pyridin-3-yl)-N-((1s,4s)-4-hydroxycyclohexyl)-1,3,4-thiadiazole-2-carboxamide] | –
